In patent US20090252778A1, “METHODS AND DEVICES FOR REDUCING TISSUE DAMAGE AFTER ISCHEMIC INJURY” (INNOVATIONAL HOLDINGS LLC., priority 2006, published 2009):

Assay: in vitro cumulative release from dual drug stent
Type: physicochemical
Settings: insulin and Pimecrolimus eluting stent
Method: FIG. 6a is a graph showing the in vitro cumulative release of insulin over time from a dual drug stent. FIG. 6b is a graph showing the in vitro cumulative release of pimecrolimus over time from a dual drug stent. A stent for eluting insulin and Pimecrolimus was made substantially according to the description in A above. The stent was loaded with a base region, an insulin drug region, and a Pimecrolimus cap region. The base contained PLGA and/or PEVA; the drug contained insulin 250 μg total drug load (TDL) and PLGA; and the cap contained PEVA, PLGA/PLA-PCL and Pimecrolimus 300 μg TDL, and 6 deposits of PLGA/PLA-PCL. FIGS. 6A and 6B show the release profile of the insulin and Pimecrolimus eluting stent, respectively, over time. As shown in FIG. 6A at least about 50% of the insulin is released in the first 48 hours.

Molecule | release profile of Pimecrolimus (in vitro cumulative release) (Pimecrolimus 300 μg TDL in cap region, FIG. 6B) | insulin released (in vitro cumulative release) (insulin 250 μg TDL in PLGA, in the first 48 hours, FIG. 6A)
CC[C@@H]1/C=C(\C)C[C@H](C)C[C@H](OC)[C@H]2O[C@@](O)(C(=O)C(=O)N3CCCC[C@H]3C(=O)O[C@H](/C(C)=C/[C@@H]3CC[C@H](Cl)[C@H](OC)C3)[C@H](C)[C@@H](O)CC1=O)[C@H](C)C[C@@H]2OC [Pimecrolimus] | high initial release rate followed by a slower prolonged release | 
insulin |  | at least 50%
